In ChEMBL document CHEMBL3046265, “Synthesis, evaluation of antimicrobial activity, and molecular modeling of novel 2-((4-(2H-benzo[d] [1,2,3] triazol-2-yl)piperidin-1-yl)methyl)-5-substituted phenyl-1,3,4-oxadiazoles” (2013):

Assays:
Format in all cases: functional
Conditions in all cases: read-out: IZ
Candida albicans [1] = assay: Antifungal activity against Candida albicans at 900 ug/ml after 48 hr
Proteus vulgaris [2] = assay: Antibacterial activity against Proteus vulgaris at 900 ug/ml after overnight incubation
Streptococcus pyogenes [3] = assay: Antibacterial activity against Streptococcus pyogenes at 600 ug/ml after overnight incubation
Fusarium oxysporum [4] = assay: Antifungal activity against Fusarium oxysporum at 900 ug/ml after 48 hr
Klebsiella aerogenes [5] = assay: Antibacterial activity against Enterobacter aerogenes at 900 ug/ml after overnight incubation
Colletotrichum falcatum [6] = assay: Antifungal activity against Glomerella tucumanensis at 300 ug/ml after 48 hr
Colletotrichum falcatum [7] = assay: Antifungal activity against Glomerella tucumanensis at 600 ug/ml after 48 hr
Bacillus subtilis [8] = assay: Antibacterial activity against Bacillus subtilis at 900 ug/ml after overnight incubation
Bacillus pumilus [9] = assay: Antibacterial activity against Bacillus pumilus at 900 ug/ml after overnight incubation
Fusarium oxysporum [10] = assay: Antifungal activity against Fusarium oxysporum at 300 ug/ml after 48 hr
Candida albicans [11] = assay: Antifungal activity against Candida albicans at 600 ug/ml after 48 hr
Fusarium oxysporum [12] = assay: Antifungal activity against Fusarium oxysporum at 600 ug/ml after 48 hr
Priestia megaterium [13] = assay: Antibacterial activity against Bacillus megaterium at 600 ug/ml after overnight incubation
Priestia megaterium [14] = assay: Antibacterial activity against Bacillus megaterium at 900 ug/ml after overnight incubation
Exserohilum rostratum [15] = assay: Antifungal activity against Setosphaeria rostrata at 300 ug/ml after 48 hr
Klebsiella aerogenes [16] = assay: Antibacterial activity against Enterobacter aerogenes at 600 ug/ml after overnight incubation
Exserohilum rostratum [17] = assay: Antifungal activity against Setosphaeria rostrata at 600 ug/ml after 48 hr
Candida albicans [18] = assay: Antifungal activity against Candida albicans at 1200 ug/ml after 48 hr
Escherichia coli [19] = assay: Antibacterial activity against Escherichia coli at 900 ug/ml after overnight incubation
Bacillus subtilis [20] = assay: Antibacterial activity against Bacillus subtilis at 600 ug/ml after overnight incubation
Escherichia coli [21] = assay: Antibacterial activity against Escherichia coli at 600 ug/ml after overnight incubation
Bacillus pumilus [22] = assay: Antibacterial activity against Bacillus pumilus at 600 ug/ml after overnight incubation
Proteus vulgaris [23] = assay: Antibacterial activity against Proteus vulgaris at 600 ug/ml after overnight incubation
Enterococcus faecalis [24] = assay: Antibacterial activity against Enterococcus faecalis at 900 ug/ml after overnight incubation
Candida albicans [25] = assay: Antifungal activity against Candida albicans at 300 ug/ml after 48 hr
Colletotrichum falcatum [26] = assay: Antifungal activity against Glomerella tucumanensis at 1200 ug/ml after 48 hr
Enterococcus faecalis [27] = assay: Antibacterial activity against Enterococcus faecalis at 600 ug/ml after overnight incubation
Staphylococcus aureus [28] = assay: Antibacterial activity against Staphylococcus aureus at 600 ug/ml after overnight incubation
Streptococcus pyogenes [29] = assay: Antibacterial activity against Streptococcus pyogenes at 900 ug/ml after overnight incubation
Staphylococcus aureus [30] = assay: Antibacterial activity against Staphylococcus aureus at 900 ug/ml after overnight incubation
Klebsiella pneumoniae [31] = assay: Antibacterial activity against Klebsiella pneumoniae at 900 ug/ml after overnight incubation
Klebsiella pneumoniae [32] = assay: Antibacterial activity against Klebsiella pneumoniae at 600 ug/ml after overnight incubation
Colletotrichum falcatum [33] = assay: Antifungal activity against Glomerella tucumanensis at 900 ug/ml after 48 hr
Exserohilum rostratum [34] = assay: Antifungal activity against Setosphaeria rostrata at 1200 ug/ml after 48 hr
Exserohilum rostratum [35] = assay: Antifungal activity against Setosphaeria rostrata at 900 ug/ml after 48 hr
Fusarium oxysporum [36] = assay: Antifungal activity against Fusarium oxysporum at 1200 ug/ml after 48 hr

| SMILES | zone of inhibition at 900 µg/mL (Candida albicans [1]) [mm] | zone of inhibition at 900 µg/mL (Proteus vulgaris [2]) [mm] | zone of inhibition at 600 µg/mL (Streptococcus pyogenes [3]) [mm] | zone of inhibition at 900 µg/mL (Fusarium oxysporum [4]) [mm] | zone of inhibition at 900 µg/mL (Klebsiella aerogenes [5]) [mm] | zone of inhibition at 300 µg/mL (Colletotrichum falcatum [6]) [mm] | zone of inhibition at 600 µg/mL (Colletotrichum falcatum [7]) [mm] | zone of inhibition at 900 µg/mL (Bacillus subtilis [8]) [mm] | zone of inhibition at 900 µg/mL (Bacillus pumilus [9]) [mm] | zone of inhibition at 300 µg/mL (Fusarium oxysporum [10]) [mm] | zone of inhibition at 600 µg/mL (Candida albicans [11]) [mm] | zone of inhibition at 600 µg/mL (Fusarium oxysporum [12]) [mm] | zone of inhibition at 600 µg/mL (Priestia megaterium [13]) [mm] | zone of inhibition at 900 µg/mL (Priestia megaterium [14]) [mm] | zone of inhibition at 300 µg/mL (Exserohilum rostratum [15]) [mm] | zone of inhibition at 600 µg/mL (Klebsiella aerogenes [16]) [mm] | zone of inhibition at 600 µg/mL (Exserohilum rostratum [17]) [mm] | zone of inhibition at 1200 µg/mL (Candida albicans [18]) [mm] | zone of inhibition at 900 µg/mL (Escherichia coli [19]) [mm] | zone of inhibition at 600 µg/mL (Bacillus subtilis [20]) [mm] | further results |
| --- | --- | --- | --- | --- | --- | --- | --- | --- | --- | --- | --- | --- | --- | --- | --- | --- | --- | --- | --- | --- | --- |
| Brc1cccc(-c2nnc(CN3CCC(n4nc5ccccc5n4)CC3)o2)c1 | 7.86 | 5.03 | 3.85 | 15.8 | 11.6 | 2.95 | 5.01 | 9.25 | 8.12 | 3.55 | 4.03 | 7.86 | 3.26 | 7.25 | 3.98 | 5.85 | 4.01 | 16.8 | 6.45 | 4.25 | zone of inhibition at 600 µg/mL (Escherichia coli [21]): 3.25 mm; zone of inhibition at 600 µg/mL (Bacillus pumilus [22]): 4.25 mm; zone of inhibition at 600 µg/mL (Proteus vulgaris [23]): 2.25 mm; zone of inhibition at 900 µg/mL (Enterococcus faecalis [24]): 5.8 mm; zone of inhibition at 300 µg/mL (Candida albicans [25]): 2.5 mm; zone of inhibition at 1200 µg/mL (Colletotrichum falcatum [26]): 17.8 mm; zone of inhibition at 600 µg/mL (Enterococcus faecalis [27]): 3.21 mm; zone of inhibition at 600 µg/mL (Staphylococcus aureus [28]): 4.46 mm; zone of inhibition at 900 µg/mL (Streptococcus pyogenes [29]): 7.25 mm; zone of inhibition at 900 µg/mL (Staphylococcus aureus [30]): 8.25 mm; zone of inhibition at 900 µg/mL (Klebsiella pneumoniae [31]): 7.62 mm; zone of inhibition at 600 µg/mL (Klebsiella pneumoniae [32]): 3.25 mm; zone of inhibition at 900 µg/mL (Colletotrichum falcatum [33]): 9.25 mm; zone of inhibition at 1200 µg/mL (Exserohilum rostratum [34]): 15.1 mm; zone of inhibition at 900 µg/mL (Exserohilum rostratum [35]): 7.96 mm; zone of inhibition at 1200 µg/mL (Fusarium oxysporum [36]): 29.9 mm |
| CCC(C)n1ncn(-c2ccc(N3CCN(c4ccc(OCC5COC(Cn6cncn6)(c6ccc(Cl)cc6Cl)O5)cc4)CC3)cc2)c1=O (centres undefined) [ITRACONAZOLE] | 12 | – | – | 20 | – | 4.67 | 9.34 | – | – | 4.82 | 5.35 | 10.8 | – | – | 3.58 | – | 7.56 | 25.1 | – | – | zone of inhibition at 300 µg/mL (Candida albicans [25]): 2.62 mm; zone of inhibition at 1200 µg/mL (Colletotrichum falcatum [26]): 33.4 mm; zone of inhibition at 900 µg/mL (Colletotrichum falcatum [33]): 18.3 mm; zone of inhibition at 1200 µg/mL (Exserohilum rostratum [34]): 29.6 mm; zone of inhibition at 900 µg/mL (Exserohilum rostratum [35]): 14.8 mm; zone of inhibition at 1200 µg/mL (Fusarium oxysporum [36]): 39.6 mm |
| Cc1c(Br)cccc1-c1nnc(CN2CCC(n3nc4ccccc4n3)CC2)o1 | 9.36 | 7.05 | 4.82 | 13.3 | 7.56 | 3.97 | 8.25 | 9.8 | 8.54 | 3.42 | 4.18 | 6.56 | 5.3 | 10.3 | 2.98 | 3.65 | 5.25 | 17.9 | 9.46 | 4.8 | zone of inhibition at 600 µg/mL (Escherichia coli [21]): 5.23 mm; zone of inhibition at 600 µg/mL (Bacillus pumilus [22]): 4.29 mm; zone of inhibition at 600 µg/mL (Proteus vulgaris [23]): 3.45 mm; zone of inhibition at 900 µg/mL (Enterococcus faecalis [24]): 12.1 mm; zone of inhibition at 300 µg/mL (Candida albicans [25]): 2.09 mm; zone of inhibition at 1200 µg/mL (Colletotrichum falcatum [26]): 29.3 mm; zone of inhibition at 600 µg/mL (Enterococcus faecalis [27]): 5.92 mm; zone of inhibition at 600 µg/mL (Staphylococcus aureus [28]): 4.8 mm; zone of inhibition at 900 µg/mL (Streptococcus pyogenes [29]): 9.25 mm; zone of inhibition at 900 µg/mL (Staphylococcus aureus [30]): 10 mm; zone of inhibition at 900 µg/mL (Klebsiella pneumoniae [31]): 10.2 mm; zone of inhibition at 600 µg/mL (Klebsiella pneumoniae [32]): 5.25 mm; zone of inhibition at 900 µg/mL (Colletotrichum falcatum [33]): 15.4 mm; zone of inhibition at 1200 µg/mL (Exserohilum rostratum [34]): 23.9 mm; zone of inhibition at 900 µg/mL (Exserohilum rostratum [35]): 11.3 mm; zone of inhibition at 1200 µg/mL (Fusarium oxysporum [36]): 24.9 mm |
| Cc1ccc(-c2nnc(CN3CCC(n4nc5ccccc5n4)CC3)o2)cc1Br | 9.26 | 10.1 | 2.25 | 13.2 | 7.05 | 4.22 | 7.8 | 9.05 | 6.56 | 4.21 | 5.51 | 7.36 | 5.85 | 9.85 | 3.25 | 3.55 | 5.21 | 17.8 | 11.1 | 4.25 | zone of inhibition at 600 µg/mL (Escherichia coli [21]): 6.85 mm; zone of inhibition at 600 µg/mL (Bacillus pumilus [22]): 3.32 mm; zone of inhibition at 600 µg/mL (Proteus vulgaris [23]): 4.85 mm; zone of inhibition at 900 µg/mL (Enterococcus faecalis [24]): 5.56 mm; zone of inhibition at 300 µg/mL (Candida albicans [25]): 3.23 mm; zone of inhibition at 1200 µg/mL (Colletotrichum falcatum [26]): 25.6 mm; zone of inhibition at 600 µg/mL (Enterococcus faecalis [27]): 3.35 mm; zone of inhibition at 600 µg/mL (Staphylococcus aureus [28]): 5.85 mm; zone of inhibition at 900 µg/mL (Streptococcus pyogenes [29]): 5.56 mm; zone of inhibition at 900 µg/mL (Staphylococcus aureus [30]): 11.2 mm; zone of inhibition at 900 µg/mL (Klebsiella pneumoniae [31]): 12.8 mm; zone of inhibition at 600 µg/mL (Klebsiella pneumoniae [32]): 6.02 mm; zone of inhibition at 900 µg/mL (Colletotrichum falcatum [33]): 14 mm; zone of inhibition at 1200 µg/mL (Exserohilum rostratum [34]): 17.2 mm; zone of inhibition at 900 µg/mL (Exserohilum rostratum [35]): 9.86 mm; zone of inhibition at 1200 µg/mL (Fusarium oxysporum [36]): 26.9 mm |
| CN[C@@H]1[C@H](O[C@H]2[C@H](O[C@H]3[C@H](O)[C@@H](O)[C@H](N=C(N)N)[C@@H](O)[C@@H]3N=C(N)N)O[C@@H](C)[C@]2(O)C=O)O[C@@H](CO)[C@H](O)[C@H]1O [STREPTOMYCIN] | – | 16.1 | 8.91 | – | 8.76 | – | – | 16.2 | 14.5 | – | – | – | 6.23 | 12.8 | – | 4.47 | – | – | 6.14 | 8.44 | zone of inhibition at 600 µg/mL (Escherichia coli [21]): 3.06 mm; zone of inhibition at 600 µg/mL (Bacillus pumilus [22]): 7.25 mm; zone of inhibition at 600 µg/mL (Proteus vulgaris [23]): 8.9 mm; zone of inhibition at 900 µg/mL (Enterococcus faecalis [24]): 20.3 mm; zone of inhibition at 600 µg/mL (Enterococcus faecalis [27]): 12.8 mm; zone of inhibition at 600 µg/mL (Staphylococcus aureus [28]): 10.3 mm; zone of inhibition at 900 µg/mL (Streptococcus pyogenes [29]): 16.5 mm; zone of inhibition at 900 µg/mL (Staphylococcus aureus [30]): 20 mm; zone of inhibition at 900 µg/mL (Klebsiella pneumoniae [31]): 6.54 mm; zone of inhibition at 600 µg/mL (Klebsiella pneumoniae [32]): 3.24 mm |
